Measured values as given in patent US9404080B2, “Human taste cells capable of continuous proliferation” (B.R.A.I.N. BIOTECHNOLOGY RESEARCH AND INFORMATION NETWORK AG, priority 2012, dated 2016).
Entries after “also recorded” stand apart in the source; their conditions may differ.

Experiments:
[1] = test system: human taste cells BR-HTC8; assay: Fluo-4 fluorescent calcium imaging assay in BR-HTC8; type: cell-based; as to Fluo-4 assay BR-HTC8: key: + indicates that the analysis was successful and that the mRNA was detected by RT-PCR or that stimulation of human taste cells with the respective taste molecule resulted in a dose-dependent increase in intracellular calcium or decrease in cellular membrane potential
Protocol: Before the assay, cells are maintained in HTC medium for at least 48 hours as described in Example 1. Cells are then trypsinized with accutase (e.g. PAA, L11-007) or TrypLE (e.g. Gibco, 12563) and seeded into poly-D-lysine coated 96-well assay plates (e.g. Corning) at a density of 15,000 cells/well in 100 μl HTC medium.
After 24 hours, the cells (still in 100 μl medium) are stained by addition of 100 μl of Fluo-4 staining solution, which consists of KH buffer (10 mM HEPES pH7.4 containing 118 mM NaCl, 4.7 mM KCl, 4.2 mM NaHCO3, 1.2 mM KH2PO4, 1.2 mM MgSO4, 1.3 mM CaCl2) containing 4 μM Fluo-4 (Molecular Probes) and incubation for 1 hour at 37° C. Final Fluo-4 concentration in the staining solution/medium mixture is 2 μM. Staining solution is then replaced by 80 μl KH-buffer per well and plates are transferred into a fluorescence microplate reader to monitor changes in Ca^2+-dependent fluorescence (excitation 488 nm, emission 530 nm) after the addition of 20 μl KH-buffer supplemented with the test molecule under investigation. The test molecule was added 16 seconds after starting the scan and baseline recording, mixed twice, and then recording continued for additional 44 seconds. Data points of a total of 18 reads were collected. Data analysis/Data recording—Calcium mobilization was measured as the change of peak fluorescence (ΔF) over the baseline level (F). Data were expressed as the mean S.E. of the ΔF/F value of replicated independent samples. Data analysis was done with software provided by the manufacturer of the microplate reader (e.g. Molecular Devices).
(§1) To test, whether stimulation of human taste cells with these taste molecules leads to changes in intracellular calcium the Fluo-4 fluorescent calcium imaging assay was performed as described above. Non-taste cells including HEK293 cells and non-lingual, proliferating primary cells isolated from the oral cavity served as a control and were treated equally throughout the procedure. Changes in Ca^2+-dependent Fluo-4 fluorescence were recorded on a Molecular Devices Fluorescence microplate reader. Measurement was started by addition of increasing concentrations of the taste molecules in KH-buffer to the cells. KH-buffer served as negative control and KH-buffer containing 1 μM ionomycin served as a positive control. […] Calcium signals for each test molecule are depicted as Relative Fluorescence Units (RFU), which means that calcium mobilization in response to taste molecules was calculated dF/F0, with dF is (peak fluorescence F1−baseline fluorescence F0). […] Data were obtained from several independent experiments and performed in triplicates.
In order to perform to the Fluo-4 fluorescent calcium imaging experiment in the absence of extracellular Ca^2+ the procedure was conducted as described above, however, the KH-buffer was prepared without addition of Ca^2+. Measurement was started by addition of increasing concentrations of the taste molecules in KH-buffer without Ca^2+ to the cells. KH-buffer without Ca^2+ served as negative control and KH-buffer without Ca^2+ containing 1 μM ionomycin served as a positive control.
To test, whether stimulation of human taste cells with oxytocin leads to changes in intracellular calcium the Fluo-4 fluorescent calcium imaging assay was performed as described above in Example 5. Briefly, the human taste cells were seeded in 96-well plates and stained with 2 μM of the calcium-sensitive fluorescence dye Fluo4 in HTC/KH buffer medium for one hour at 37° C. with subsequent replacement of the staining solution with KH-buffer. Non-taste cells including HEK293 cells and non-lingual, proliferating primary cells isolated from the oral cavity served as a control and were treated equally throughout the procedure. Changes in Ca^2+-dependent Fluo-4 fluorescence were recorded on a Molecular Devices Fluorescence microplate reader.

[2] = test system: human taste cells BR-HTC8; assay: FLIPR fluorescent membrane potential (FMP) imaging assay in BR-HTC8; type: cell-based; conditions: BR-HTC8, increasing concentrations in KH-buffer
Protocol: This cell depolarization was measured by using voltage-sensitive dyes including FLIPR fluorescent membrane potential (FMP) dye (Molecular Devices R8123). Before the assay, cells were maintained in HTC medium for at least 48 hours as described above in Example 1. Cells were then trypsinized with accutase (e.g. PAA, L11-007) or TrypLE (e.g. Gibco, 12563) and seeded into poly-D-lysine coated 96-well assay plates (Corning) at a density of 15,000 cells/well in […].
After 24 hours, medium was removed and the cells are washed once with 100 μl KH buffer (10 mM HEPES pH7.4 containing 118 mM NaCl, 4.7 mM KCl, 4.2 mM NaHCO3, 1.2 mM KH2PO4, 1.2 mM MgSO4, 1.3 mM CaCl2) and then stained with 200 μl KH buffer containing FLIPR FMP dye according instructions of the manufacturer […] and incubation for 2 hours at 37° C. The plates were then transferred into a fluorescence microplate reader to monitor changes in membrane potential-dependent fluorescence (excitation 530 nm, emission 565 nm) after the addition of 50 μl KH-buffer supplemented with the test molecule under investigation. The test molecule was added 16 seconds after starting the scan and baseline recording, mixed twice, and then recording continued for additional 74 seconds. Data points of a total of 35 reads were collected.
Data analysis/Data recording—Changes of the membrane potential was measured as the change of peak fluorescence (ΔF) over the baseline level (F). Data were expressed as the mean S.E. of the ΔF/F value of replicated independent samples. Data analysis was done with software provided by the manufacturer of the microplate reader (Molecular Devices).
(§2) To test, whether stimulation of human taste cells with taste molecules leads to changes in cellular membrane potential the FLIPR fluorescent membrane potential assay was performed as described above. Non-taste cells including HEK293 cells and non-lingual, proliferating primary cells isolated from the oral cavity served as a control and were treated equally throughout the procedure. Changes in membrane potential were recorded on a Molecular Devices Fluorescence microplate reader. Measurement was started by addition of increasing concentrations of the taste molecules in KH-buffer to the cells. KH-buffer served as negative control and KH-buffer containing 4 μM FCCP (e.g. Sigma, C2920) served as a positive control. […] Data were obtained from several independent experiments and performed in triplicates.
as §2, with “This cell depolarization can be measured by using voltage-sensitive dyes including FLIPR fluorescent membrane potential (FMP) dye (Molecular Devices R8123) as described above in Example 6. To” for “To”, “oxytocin” for “taste molecules”, “oxytocin” for “the taste molecules”

BR-HTC38 cells = assay: Fluo-4 fluorescent calcium imaging assay in TAS2R38-transduced BR-HTC38; type: cell-based, human; conditions: BR-HTC38 (TAS2R38 expressed) vs BR-HTC8
Protocol: Changes in Ca^2+-dependent Fluo-4 fluorescence were recorded on a Molecular Devices fluorescence microplate reader. Measurement was started by addition of increasing concentrations of the taste molecules in KH-buffer to the cells. KH-buffer served as negative control and KH-buffer containing 1 μM ionomycin served as a positive control. […] Calcium signals for each test molecule are depicted as Relative Fluorescence Units (RFU), which means that calcium mobilization in response to taste molecules was calculated dF/F0, with dF is (peak fluorescence F1−baseline fluorescence F0). […] Data were obtained from several independent experiments and performed in triplicates.

[3] = test system: Non-taste cells including HEK293 cells, Cal33 cells, and non-lingual, proliferating primary cells isolated from the oral cavity; assay: Fluo-4 fluorescent calcium imaging assay in non-taste control cells; type: cell-based, human
Protocol: Briefly, human taste cells were seeded in 96-well plates and stained with Fluo4-AM. Non-taste cells including HEK293 cells, Cal33 cells, and non-lingual, proliferating primary cells isolated from the oral cavity served as a control. Changes in Ca^2+-dependent Fluo-4 fluorescence were recorded on a Molecular Devices fluorescence microplate reader. Measurement was started by addition of increasing concentrations of the taste molecules. […] Calcium signals for each test molecule are depicted as relative fluorescence units (RFU).
as §1

`OCc1ccccc1O[C@@H]1O[C@H](CO)[C@@H](O)[C@H](O)[C@H]1O` [Salicin] was tested. Which “change of Fluo4-fluorescence / intracellular calcium on addition of the test molecule” value ([1]; BR-HTC8, increasing concentrations in KH-buffer with Ca2+) did it give?
Its value is “dose-dependent increase of Fluo4-fluorescence”.

And the “Fluo-4 calcium response in the absence of extracellular Ca2+” value ([1]; KH-buffer without Ca2+, BR-HTC8, molecule alone)?
Its value is “increase of intracellular calcium; also recorded: dose-dependent increase of Fluo4-fluorescence”.

What about the “Fluo-4 assay BR-HTC8” value ([1]; dose-dependent increase in intracellular calcium on stimulation with the cognate bitter molecule of the TAS2R named in the row) of the same compound?
The value was “+”.

What about the “change of cellular membrane potential (FLIPR FMP dye fluorescence) on addition of the test molecule” value [2] of the same compound?
Its value is “did not elicit significant changes in cellular membrane potential”.

And the “dose-dependent Fluo-4 calcium response in BR-HTC38 compared with parental BR-HTC8” value (BR-HTC38 cells)?
Its value is “enhanced”.

And the “increase of Fluo4-fluorescence in control cells” value [3]?
The value was “not in control cells”.
